# Columns and labels:
# Type in all cases: cell-based, human
# [1] = system: PARP; assay: Western blot for PARP in TGF-β-stimulated iFECD; conditions: 0.1, 1, 10 μM
# Experimental: (§1) […] were seeded on a 12-well plate at a ratio of 8×10^4 cells per well, and cultured at 37° C. (5% CO2) for 24 hours. DMEM+10% FBS+1% P/S was used as the medium. After 24 hours, the medium was removed. EW-7197 (Selleck Chemicals, 57530) was added so that the final concentration would be 0.1, 1, or 10 μM, and SB431542 (WAKO, 192-16541) was added so that the final concentration would be 10 μM, and the medium was cultured for 24 hours. DMEM+2% FBS+1% P/S was used as the medium. After 24 hours, the medium was removed and cultured […] so that the final concentration of 10 ng/ml of Transforming Growth Factor-132 Human recombinant (WAKO, 200-19911) and […] would be 0.1, 1, and 10 μM, and that of SB431542 would be 10 μM. DMEM+2% FBS+1% P/S was used as the medium. After 24 hours, the cell morphology and apoptosis were observed under a phase contrast microscope. To retrieve floating and dead cells, the medium was retrieved on ice, cells were washed twice with 1×PBS(-) and the solution thereof was also retrieved. The solution was centrifuged for 5 min at 4° C. and 800 g and the supernatant was discarded to obtain a precipitate. […] The detected band intensities were analyzed with Lumino Image Analyzer LAS-4000 mini (Fuji Film) and ImageQuantTM software (GE Healthcare).
# [2] = system: iFECD; assay: Cell survival rate (Cell Titer-Glo Luminescent Cell Viability Assay)
# Experimental: were seeded on a 96-well plate at a ratio of 3×10^3 cells per well, and cultured until reaching confluence at 37° C. (5% CO2). DMEM+10% FBS+1% P/S was used as the medium. After 24 hours, the medium was removed. SB431542 (WAKO, 192-16541) and EW-7197 (Selleck Chemicals, 57530) were added so that the final concentration would each be 0.01, 0.1, 1, or 10 μM, and the medium was cultured for 48 hours. DMEM+2% FBS+1% P/S was used as the medium. After 24 hours, the cell morphology was observed under a phase contrast microscope. After observation, the cell survival rate was analyzed using Cell Titer-Glo Luminescent Cell Viability Assay by the following procedures. The medium was discarded so that the amount would be 50 μl per well, and Cell Titer-Glo Luminescent Cell Viability Assay solution (Promega, G7572) was added at 50 μl/well so that the ratio to the medium would be 1:1. The process was hereinafter conducted without exposure to light. The mixture was mixed thoroughly using a shaker for 2 minutes at about 120 min^-1, and incubated for 10 minutes. After the incubation, 80 μl was transferred to an Assay plate (Corning, 3912, Assay plate 96 well, white polystyrene), and absorbance was measured using a GloMax-Multi Detection System (Promega, E7051).
# [3] = system: fibronectin; assay: Western blot for fibronectin in TGF-β-stimulated iFECD; conditions: any of the concentrations 0.1, 1, 10 μM
# Experimental: as §1
# [4] = system: Caspase 3/7; assay: Caspase 3/7 activity (Caspase-Glo 3/7 Assay) in TGF-β-stimulated iFECD
# Experimental: were seeded on a 96-well plate at a ratio of 3×10^3 cells per well, and cultured until reaching confluence at 37° C. (5% CO2). DMEM+10% FBS+1% P/S was used as the medium. After 24 hours, the medium was removed. SB431542 (WAKO, 192-16541) and EW-7197 (Selleck Chemicals, 57530) were added so that the final concentration would each be 0.01, 0.1, 1, or 10 μM, and the medium was cultured for 24 hours. DMEM+2% FBS+1% P/S was used as the medium. After 24 hours, the medium was removed. 10 ng/ml of Transforming Growth Factor-132 Human recombinant (WAKO, 200-19911) and SB431542 were added so that the final concentration would be 0.01, 0.1, 1, and 10 μM, and the medium was cultured for 24 hours. DMEM+2% FBS+1% P/S was used as the medium. After 24 hours, the cell morphology was observed under a phase contrast microscope. After observation, Caspase 3/7 activity was measured using Caspase-Glo 3/7 Assay by the following procedures. The medium was discarded so that the amount would be 50 μl per well, and a Caspase Glo 3/7 Assay Reagent (mixture of Caspase-Glo 3/7 Assay Buffer and Caspase-Glo 3/7 Assay Substrate) (Promega, G8091) solution was added at 50 μl/well so that the ratio thereof to the medium would be 1:1. The process was hereinafter conducted without exposure to light. The mixture was mixed thoroughly using a shaker for 2 minutes at about 120 min^-1, and incubated for 40 minutes at room temperature. After the incubation, 80 μl was transferred to an Assay plate (Corning, 3912, Assay plate 96 well, white polystyrene), and absorbance was measured using a GloMax-Multi Detection System (Promega, E7051). A caspase inhibitor, i.e., 10μ MZ-VD-FMK (WAKO, 262-02061) was used as a positive control.
smiles,measurement,setting,value
"Cc1cccc(-c2[nH]c(CNc3ccccc3F)nc2-c2ccc3ncnn3c2)n1 [EW-7197, N-((4-([1,2,4]triazolo[1,5-a]pyridin-6-yl)-5-(6-methylpyridin-2-yl)-1H-imidazol-2-yl)methyl)-2-fluoroaniline]",PARP (about 89 kDa),[1],suppressed to the same degree as the control group without stimulation with TGF-β or 10 μM of SB431542
same,cell survival rate compared to a control group,"[2]; iFECD, all concentrations of 0.01, 0.1, 1, and 10 μM, 48 hours",a significant difference was not found
same,toxicity to cells in a cell survival rate test,[2]; summary statement,hardly found
same,expression of fibronectin (about 240 kDa),[3],suppressed to the same degree as the control group without stimulation with TGF-β or 10 μM of SB431542
same,activity of Caspase 3/7,[4]; at 0.01 μM,inhibited significantly
same,Caspase 3/7 inhibitory effect compared to SB431542,[4]; at 0.1 μM,higher inhibitory effect
